Test results: patent US9549911B2, “Ginger metabolites and uses thereof” (North Carolina A&T State University, priority 2012, dated 2017)

Tests used:
[1] = tested on: human colon cancer cells HCT-116; test: MTT toxicity in colon cancer and normal colon cells (Part 5); assay type: cell-based; conditions: HCT-116, 24 hours
Experimental: (§1) Cell viability was determined by an MTT colorimetric assay. […] The reading reflected the number of viable cells and was expressed as a percentage of viable cells in the control. CCD-18Co cells were grown in EMEM. Both HCT-116 and HT-29 cells were cultured in McCoy's 5A medium. All of the above media were supplemented with 10% fetal bovine serum, 1% penicillin/streptomycin, and 1% glutamine, and the cells were kept in a 37° C. incubator with 95% humidity and 5% CO2.

[2] = tested on: human colon cancer cells HT-29; test: as above; assay type: cell-based; conditions: HT-29 (p53 mutant), 24 hours
Experimental: as §1

[3] = tested on: human colon fibroblast cells CCD-18Co; test: as above; assay type: cell-based; conditions: normal colon cells CCD-18Co, 24 hours
Experimental: as §1

HCT-116 cells [4] = test: Western blot analysis of apoptosis markers and p53 (Part 5); assay type: cell-based, human; conditions: HCT-116 (p53 wild-type), 24 hours; M2, 6S 10, 20 or 40 μM; 8S, M2′, 10S, M2″ 20 μM
Experimental: (§2) Cell lysates were prepared in ice-cold RIPA lysis buffer [25 mM Tris-HCl (pH 7.6), 150 mM NaCl, 1% NP-40, 1% sodium deoxycholate, 0.1% SDS, Thermo Fisher Scientific] supplemented with a protease inhibitor cocktail (AEBSF, aprotinin, bestatin, E-64, leupeptin and pepstatin A in DMSO with EDTA, Thermo Fisher Scientific). Protein content was measured by a Pierce BCA Assay Kit (Thermo Fisher Scientific). Protein contents of cell lysates (30 μg protein/lane) were resolved by SDS-PAGE. Proteins were then electro-transferred onto PVDF membranes and blots were blocked for one hour at room temperature in 1×TBS with 1% Casein (Bio-Rad Laboratories, Berkeley, Calif.). Blots were then incubated overnight at 4° C. with the desired primary antibody diluted in TBS with 0.5% Tween-20. Blots were then washed with TBS-Tween 20 and probed for 1 hour with the appropriate secondary antibody (1:1000). Protein bands were visualized with chemiluminescence using West Femto maximum detection substrate (Thermo Fisher Scientific). To confirm equal protein loading in each lane, immunoblots were stripped and re-probed for β-actin. Protein fold-induction was calculated by normalizing the intensity of the band of interest to β-actin first, and then to DMSO control lanes.

HT-29 cells = test: as above; assay type: cell-based, human; conditions: HT-29 (p53 mutant), 24 hours; M2, 6S 10, 20 or 40 μM; 8S, M2′, 10S, M2″ 20 μM
Experimental: as §2

[5] = tested on: human colon cancer cells HCT-116; test: MTT growth inhibition of human cancer and normal cells (Part 2); assay type: cell-based; conditions: Homo sapiens; HCT-116, 48 h, 0 to 80 μM
Experimental: (§3) Growth inhibition of human cancer and normal cells. Cell growth inhibition was determined by a MTT colorimetric assay. Human colon cancer cells HCT-116, human lung cancer cells H-1299, human colon fibroblast cells CCD-18Co, and human lung fibroblast cells IMR-90 were plated in 96-well microtiter plates with 3000 cells/well and allowed to attach for 24 h at 37° C. […] After the cells were cultured for 48 h, the medium was aspirated and cells were treated with 200 μL fresh medium containing 2.41 mmol/L MTT. […] The reading reflected the number of viable cells and was expressed as a percentage of viable cells in the control. Both HCT-116 and H-1299 cells were cultured in McCoy's 5A medium. CCD-18Co and IMR-90 cells were cultured in Eagle's modified essential medium (EMEM). All of the above media were supplemented with 10% fetal bovine serum, 1% penicillin/streptomycin, and 1% glutamine, and the cells were kept in a 37° C. incubator with 95% humidity and 5% CO2.

[6] = tested on: human lung cancer cells H-1299; test: as above; assay type: cell-based; conditions: Homo sapiens, NCI-H1299; H-1299, 48 h, 0 to 80 μM
Experimental: as §3

in vitro [7] = assay type: cell-based, human; conditions: human
Experimental: as §3

in vitro [8] = assay type: cell-based, human; conditions: human; remark: listed apart in the source
Experimental: as §3

H-1299 cells = test: TUNEL apoptosis assay (Part 2); assay type: cell-based, human; conditions: H-1299, 20 or 40 μM, 24 hours
Experimental: (§4) HCT-116 and H1299 cells were seeded in 6-well plates at 1×10^5 cells/well and incubated at 37° C. in 5% CO2 incubator. After 24 hours, fresh media supplemented with DMSO (control), [6]-shogaol, M2, M6, or M13 metabolites (20 μM or 40 μM) were added to the wells. After 6 or 24 hours incubation at 37° C. in 5% CO2 incubator, cells were washed and pre-treated for 15 min at room temperature with a solution of 20 μg/ml proteinase K. Cells were then washed twice with phosphate buffer saline pH 7.4 (PBS) and fixed for 10 min at room temperature using 10% neutral formaldehyde solution. After 2 washes in ddH2O, cells were resuspended in 100 μL ddH2O and applied on silanized microscope slides. Slides were incubated overnight at 37° C., and washed twice with PBS. TUNEL assay was then carried out according to the manufacturer's protocol. Cells were observed under 400× power using a Zeiss microscope A1 (Thornwood, N.Y.). 10 fields per slide were evaluated, and TUNEL+ cells (with brown coloration in the nucleus) were expressed as a percentage of the total number of cells contained in a field.

HCT-116 cells [9] = test: TUNEL apoptosis assay (Part 2); assay type: cell-based, human; conditions: HCT-116, 20 or 40 μM, 24 hours
Experimental: as §4

[10] = Kinetic study of [6]-shogaol metabolism to M6 in liver microsomes; conditions: human
Experimental: To estimate kinetic parameters of metabolism of [6]-shogoal to major product M6 in liver microsomes from human and other species, the incubation conditions were optimized to ensure that formation rate of M6 was in the linear range in relation to incubation time and protein concentration. [6]-Shogaol (7.81, 15.63, 31.25, 62.5, 125, 250, 500, 1000, and 2000 μM) was incubated with liver microsomes from mouse (MLM), rat (RLM), dog (DLM), monkey (CyLM), and human (HLM) (0.1 mg/mL each, respectively) for 30 minutes. All incubations were performed in triplicate. The apparent Km and Vmax values were calculated from analysis of experimental data according to the Michaelis-Menten equation, and the results were graphically represented (for HLM) by an Eadie-Hofstee plot. Kinetic constants were reported as the value+/−S.E. of the parameter estimate.

[11] = as above; assay type: in vitro ADME, monkey; conditions: cynomolgus, monkey
Experimental: (§5) All incubations were performed in triplicate.

[12] = as above; assay type: in vitro ADME; conditions: dog liver microsomes 0.1 mg/mL, 30 min
Experimental: as §5

[13] = as above; assay type: in vitro ADME, rat; conditions: rat
Experimental: as §5

[14] = as above; assay type: in vitro ADME, mouse; conditions: mouse
Experimental: as §5

[15] = tested on: human colon cancer cells HCT-116; test: MTT growth inhibition by M14 and M15 (Part 3); assay type: cell-based; conditions: Homo sapiens; HCT-116, 24 hours, 0 to 80 μM; read-out: IC50 (cell viability, MTT)
Experimental: as §1, with “Cell growth inhibition” for “Cell viability”, “by a” for “by an”, “control.” for “control. CCD-18Co cells were grown in EMEM.”, “and H-1299” for “and HT-29”

[16] = tested on: human lung cancer cells H-1299; test: MTT growth inhibition by M14 and M15 (Part 3); assay type: cell-based; conditions: Homo sapiens, NCI-H1299; H-1299, 24 hours, 0 to 80 μM; read-out: IC50 (cell viability, MTT)
Experimental: as §1, with “Cell growth inhibition” for “Cell viability”, “by a” for “by an”, “control.” for “control. CCD-18Co cells were grown in EMEM.”, “and H-1299” for “and HT-29”

[17] = tested on: human colon cancer cells HCT-116; test: Cell Death Detection ELISA apoptosis induction (Part 3); assay type: cell-based; conditions: 24 hours
Experimental: (§6) Human colon cancer cells HCT-116 and human lung cancer cells H-1299 were plated in 96-well plates at a density of 5000 cells/well and allowed to attach overnight at 37° C. M14, M15, or [6]-shogaol in DMSO, or DMSO control, diluted in media, were added to cells and incubated for an additional 24 hours at 37° C. After 24 hours, media containing compound was removed and cells were lysed in their respective wells with reagents from a Cell Death Detection ELISA^PLUS kit from Roche Applied Science (Mannheim, Germany). Samples were harvested after cell lysates were spun down at 300 g for 10 minutes. To streptavidin coated microplates, 20 μL samples were added, and mixed with 80 μL Immunoreagent, which consisted of anti-histone-biotin, and anti-DNA-POD, and incubated with gentle shaking for 2 hours at room temperature. After incubation, Immunoreagent was removed and samples were washed 3 times with 250 μL incubation buffer. Substrate solution, ABTS, was added to each well and color was developed for 15 minutes before stopping the reaction with ABTS stop solution and reading absorbance on a microplate reader at 430 nm. Experiments were performed in triplicate and the average is given in comparison to DMSO control with standard deviation.

[18] = tested on: human lung cancer cells H-1299; test: as above; assay type: cell-based; conditions: 24 hours
Experimental: as §6

A549 lung cancer cells = conditions: 6S 30 mg/kg, M2 30 mg/kg, M14 10 mg/kg, oral gavage 5×/week, 7 weeks
Experimental: Nu/J nude mice were obtained from Jackson Laboratories (Bar Harbor, Me.). Animals were randomized into 4 groups. A549 cells (5×10^6 cells) were implanted in both flanks of 8-weeks old Nu/J mice. One week after implantation, animals were given 100 μl of the following treatments through oral gavage 5 times/week: DMSO 0.25 ml/kg (control; n=4); 6S 10 mg/kg (n=4); 6S 30 mg/kg (n=4) or M2 30 mg/kg (n=5). Compounds were diluted in a solution of 5% DMSO in corn oil. Animal body weight and tumor volume were recorded for the duration of the experiment. Tumor volume was calculated by measuring the length and width of the tumors using a digital caliper and using the formula (Length×Width^2)/2. One hour before sacrifice, mice were given one last treatment dose as well as one intra-peritoneal injection of BrdU (7.5 mg/kg in 100 μl PBS). After 7 weeks, tumor tissues were harvested and weighed. A portion of the tumors was snap frozen in liquid nitrogen and another portion was placed in a histology cassette and immersed in formalin solution.
[…] tissues were sent to Precision Histology Lab (Oklahoma City, Okla.) for embedding in paraffin blocks. Then paraffin blocks were processed into 3-4 μm sections that were then put on microscope slides. Sections were then deparaffinized by using a succession of 3 baths of xylene (5 minutes each), 2 baths of absolute ethanol (5 minutes each), 95% ethanol for 3 minutes, 70% ethanol for 3 minutes, and rinsed in PBS. Immunostaining with TUNEL (terminal deoxynucleotidyl transferase dUTP nick end labeling) and BrdU staining kits was performed following manufacturer's recommendation. For staining quantification, sequential high-power field pictures of tumors were taken (10 pictures per tumor) using an A1 Zeiss microscope (Oberkochen, Germany). Images were processed using the Image J software, which was used to count positive, brown-colored cells in each field. Average number per tumor was calculated by averaging the number obtained for each field, and the average number of positive cells per group was obtained by averaging the values of each tumor belonging to the experimental group.
8 week-old nude mice (Jackson Laboratory, Maine) were randomized into 5 groups based on treatment (DMSO: n=4; 6S 10 mg/kg: n=4 (“6S 10”); 6S 30 mg/kg: n=4 (“6S 30”); M2 30 mg/kg: n=5 (“M2 30”); M14 10 mg/kg: n=4 (“M14 10”)). Animals were implanted with 5×10^6 A549 lung cancer cells (adenocarcinomic human alveolar basal epithelial cells) on each flank. The mice had access to food and water ad libitum. One week post implantation, the animals started receiving their respecting treatments through oral gavage (100 μl in corn oil and 5% DMSO), 5×/week. After 7 weeks of treatment, the tumor tissues were harvested.

| IC50 [15] [µM] | IC50 [16] [µM] | SMILES | IC50 [1] [µM] | IC50 [2] [µM] | IC50 [3] [µM] | p53 expression (Western blot) (HCT-116 cells [4]) | p53 expression (Western blot) (HT-29 cells) | induction of apoptosis compared to DMSO control ([17]; HCT-116, 10 μM) | induction of apoptosis compared to DMSO control ([18]; H-1299, 10 μM) | other results |
| --- | --- | --- | --- | --- | --- | --- | --- | --- | --- | --- |
|  |  | CCCCCCC/C=C/C(=O)CCc1ccc(O)c(OC)c1 [8S, [8]-shogaol, reference compound] | 22.8 | 27.9 | 105 | increase in p53 accumulation | increase in p53 accumulation |  |  |  |
|  |  | CCCCCCCCC/C=C/C(=O)CCc1ccc(O)c(OC)c1 [10S, [10]-shogaol, reference compound] | 25.1 | 23.9 | 136 | increase in p53 accumulation | increase in p53 accumulation |  |  |  |
|  |  | CCCCCC=CC(O)CCc1ccc(O)c(OC)c1 (centres unmarked) [M6, 1-(4′-hydroxy-3′-methoxyphenyl)-4-decen-3-ol] |  |  |  |  |  |  |  | IC50 [5]: 68.8 µM; IC50 [6]: 61.3 µM; IC50 at 48 h (in vitro [7]): > 100 µM; IC50 at 48 h (in vitro [8]): > 100 µM; induction of apoptosis (TUNEL) versus DMSO (H-1299 cells): did not display any apoptotic effect; induction of apoptosis (TUNEL) versus DMSO (HCT-116 cells [9]): did not display any apoptotic effect; Vmax of M6 formation [10]: 10.82 +/− 0.47 nanomoles per minute per milligram liver microsomes; Vmax of M6 formation [11]: 2.99 +/− 0.28 nanomoles per minute per milligram liver microsomes; Vmax of M6 formation [12]: 7.33 +/− 0.43 nanomoles per minute per milligram liver microsomes; Vmax of M6 formation [13]: 8.19 +/− 0.48 nanomoles per minute per milligram liver microsomes; Vmax of M6 formation [14]: 4.10 +/− 0.19 nanomoles per minute per milligram liver microsomes |
| 3.22 | 3.04 | CCCCC/C=C/C(=O)/C=C/c1ccc(O)c(OC)c1 [M14, (1E, 4E)-1-(4′-hydroxy-3′-methoxyphenyl)-deca-1,4-dien-3-one] |  |  |  |  |  | about 6 fold | 7-8 fold | induction of apoptosis compared to DMSO control ([17]; HCT-116, 1 μM): 2 fold; induction of apoptosis compared to DMSO control ([18]; H-1299, 1 μM): 1 fold; tumor size versus control group (A549 lung cancer cells): Reduction in tumor size |
| 43 | 41.6 | CCCCCCCC(=O)/C=C/c1ccc(O)c(OC)c1 [M15, (E)-1-(4′-hydroxy-3′-methoxyphenyl)-dec-1-en-3-one] |  |  |  |  |  | 1 fold | ~2 fold |  |
